Consider 1 substance from US4393047A, “Antibiotic cytophagin and a process for producing the same” (Microbiochemical Research Foundation, priority 1981, dated 1983).

Bounds are passed on as bounds.

Broadly, the MIC is the least concentration at which growth counts as inhibited. A lower MIC goes with inhibition by little substance.

A short description of series [1]: Solubility in various solvents. Type of series: physicochemical.
Series [2] has as its system Staphylococcus aureus MS 8800. In words: Minimum growth inhibitory concentration, agar dilution method. Type of series: cell-based. Conditions: Staphylococcus aureus MS 8800, resistant to penicillin, tetracyclin, streptomycin and erythromycin, pH 7. The source says:
(§1) **Determined by agar dilution method using a bouilon medium (pH:7).
(In general: Agar dilution tests growth on a series of plates holding different concentrations.)

Series [3] deals with Staphylococcus sp M-XX-0105. The series is described as above. Format: cell-based. Conditions: Staphylococcus sp M-XX-0105, resistant to amikacin, tobramycin and DKB, pH 7.
Source text: as §1

Series [4] has as its system Mycobacterium smegmatis ATCC 607. Described as above. Format: cell-based. The conditions noted are these: pH 7.
Source text: as §1

Series [5] deals with Staphylococcus aureus FDA 209P. The description is as above. Conditions: bouillon medium pH 7. Format: cell-based.
Source text: as §1

The subject of series [6] is Bacillus subtilis PCI 219. The description is as above. Conditions: pH 7. Type of series: cell-based.
Source text: as §1

Series [7] has as its system Micrococcus lysodeikticus IFO 3333. The series is described as above. Format: cell-based. Conditions: pH 7.
Source text: as §1

Another series concerns Sarcina lutea PCI 1001. Described as above. Type of series: cell-based. Conditions: pH 7.
Source text: as §1

The subject of the next series is Candida albicans 3147. The series is described as above. Type of series: cell-based. The conditions noted are these: pH 7.
Source text: as §1

The test system of a further series is Escherichia coli K-12. The series is described as above. Type of series: cell-based. The conditions noted are these: pH 7.
Source text: as §1

For series [8], the system named is Bacillus subtilis NRRL B-558. The description is as above. The conditions noted are these: pH 7. Type of series: cell-based.
Source text: as §1

Series [9] relates to Pseudomonas aeruginosa A 3. Described as above. Format: cell-based. Conditions: pH 7.
Source text: as §1

The next series deals with mouse. Briefly: Acute toxicity in mouse. Type of series: in vivo. Conditions: ip., 200 mg/kg in DMSO/water, two groups of 3. As for the experimental part:
The acute toxicity of cytophagin was determined by using mouse as test animals.

Series [10] has as its system various Gram-positive bacteria. Briefly: Activity against the growth of Gram-positive bacteria (Table 1). Type of series: cell-based. Conditions: qualitative, from Table 1.
Source text: as §1

As to cytophagin, the Solubility entry is on record as “Readily soluble” in [1] (acetic acid); “hardly soluble” in series [1] (acetone); “hardly soluble” in series [1] (chloroform); “Readily soluble” in series [1] (dimethylsulfoxide); “substantially soluble” in series [1] (ethanol); “hardly soluble” in [1] (ethyl acetate). Further, the Solubility result in series [1] (ethyl ether) is on record as “hardly soluble”; in series [1] (methanol), “substantially soluble”; in series [1] (water), “hardly soluble”. Moreover, the minimal inhibitory concentration (MIC) was 1.56 mg/L in series [2]; 2.5 mg/L in series [3]; greater than 100 mg/L in [4]; 1.56 mg/L in series [5]; 1.56 mg/L in [6]; 0.1 mg/L in series [7]. For the same substance, the MIC in the series with Sarcina lutea PCI 1001 is 0.1 mg/L; with Candida albicans 3147, 50 mg/L; in the series on Escherichia coli K-12, greater than 100 mg/L; in series [8] it was 1.56 mg/L; in series [9], greater than 100 mg/L. Besides, in the series with mouse, the “acute toxicity (survival)” value is listed as “All of them (two groups, each consisting of 3 mouse) survived”. For the same substance, the “activity against the growth of various Gram-positive bacteria” value in series [10] is listed as “strongly active”.
